Data on 13 compounds can be found in US5773438A, “Synthetic matrix metalloprotease inhibitors and use thereof” (Glycomed Incorporated, priority 1994, dated 1998).

One experiment addresses Stromelysin (Homo sapiens, UniProt P08254). The experiment is described as follows: inhibition of stromelysin (Table 2). The format is biochemical. The conditions noted are these: read-out: Strom inhibitory activity.
In experiment [1] the target is Recombinant neutrophil collagenase (Homo sapiens, UniProt P22894). The experiment in a line: inhibition of recombinant neutrophil collagenase (Table 2). The format is biochemical. To be noted: read-out: NC inhibitory activity.
Procedure: (§6) Specifically, assay of inhibition activity can be conducted as follows. […] Assays for inhibition of human stromelysin are conducted as described by Teahan, J., et al., Biochemistry (1989) 20:8497-8501.
(§7) Assay of inhibition activity can be conducted using a fluorogenic substrate developed by Knight et al., FEBS Letters (1992) 296:263. This method uses a fluorometer to determine the rate of substrate hydrolysis in a 96 well plate format. Reaction rates are determined at several substrate concentrations, and multiple inhibitor levels. The data are analyzed by Lineweaver-Burk, Dixon and Henderson plot analyses (Enzyme Kinetics (1975) Irwin Segal (John Wiley & Sons, Inc., publishers), and as described by Henderson, Biochem J. (1972) 127:321). The substrate levels range from 10-30μM. […] Inhibitors may be assayed against purified 72 kD gelatinase, 92 kD gelatinase, neutrophil collagenase, stromelysin or other proteases as appropriate. The enzymes are activated at 37° C. with APMA (4-aminophenylmercuric acetate), and the assays are carried out at room temperature.
The target of experiment [2] is T1, human skin fibroblast collagenase (Homo sapiens, UniProt P03956).
T1 construct: endogenous in cells; host or cells: human skin fibroblasts
T1 sequence (P03956 100-469): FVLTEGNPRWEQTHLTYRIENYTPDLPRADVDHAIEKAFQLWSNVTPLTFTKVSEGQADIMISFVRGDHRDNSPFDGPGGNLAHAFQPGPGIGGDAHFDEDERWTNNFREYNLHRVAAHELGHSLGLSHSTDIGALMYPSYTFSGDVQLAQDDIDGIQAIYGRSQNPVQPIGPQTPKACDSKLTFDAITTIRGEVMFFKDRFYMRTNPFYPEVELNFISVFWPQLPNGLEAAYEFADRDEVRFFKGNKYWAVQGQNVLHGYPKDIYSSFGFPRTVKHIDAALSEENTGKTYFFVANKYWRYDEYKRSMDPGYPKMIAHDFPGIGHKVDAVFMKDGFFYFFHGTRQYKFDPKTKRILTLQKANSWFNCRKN
The experiment is described as follows: inhibition of collagenase, synthetic thiol ester substrate, Ki (Table 1). It counts as biochemical.
Procedure: Specifically, assay of inhibition activity can be conducted as follows. Inhibitors may be assayed against crude or purified human skin fibroblast collagenase, or purified human gingival fibroblast collagenase using the synthetic thiol ester substrate at pH 6.5 exactly as described by Kortylewicz & Galardy, J Med Chem (1990) 33:263-273, at a collagenase concentration of 1-2 nM. The candidate inhibitors are tested for their ability to inhibit crude collagenase and gelatinase from human skin fibroblasts, crude collagenase and gelatinase from purulent human neutrophils in this assay.

Experiment [3] concerns the target T2, Human gingival fibrblast collagenase (Homo sapiens, UniProt P03956).
T2 construct: endogenous in cells; host or cells: human gingival fibroblasts
T2 sequence (P03956 100-469): T1 sequence (P03956 100-469)
The experiment is described as follows: inhibition of human gingival fibroblast collagenase (Table 2). It counts as biochemical. To be noted: read-out: HGFC inhibitory activity.
Procedure: as §6, §7

Experiment [4] concerns the target T3, Natural human 72kD gelatinase (Homo sapiens, UniProt P08253).
T3 sequence (P08253 110-660): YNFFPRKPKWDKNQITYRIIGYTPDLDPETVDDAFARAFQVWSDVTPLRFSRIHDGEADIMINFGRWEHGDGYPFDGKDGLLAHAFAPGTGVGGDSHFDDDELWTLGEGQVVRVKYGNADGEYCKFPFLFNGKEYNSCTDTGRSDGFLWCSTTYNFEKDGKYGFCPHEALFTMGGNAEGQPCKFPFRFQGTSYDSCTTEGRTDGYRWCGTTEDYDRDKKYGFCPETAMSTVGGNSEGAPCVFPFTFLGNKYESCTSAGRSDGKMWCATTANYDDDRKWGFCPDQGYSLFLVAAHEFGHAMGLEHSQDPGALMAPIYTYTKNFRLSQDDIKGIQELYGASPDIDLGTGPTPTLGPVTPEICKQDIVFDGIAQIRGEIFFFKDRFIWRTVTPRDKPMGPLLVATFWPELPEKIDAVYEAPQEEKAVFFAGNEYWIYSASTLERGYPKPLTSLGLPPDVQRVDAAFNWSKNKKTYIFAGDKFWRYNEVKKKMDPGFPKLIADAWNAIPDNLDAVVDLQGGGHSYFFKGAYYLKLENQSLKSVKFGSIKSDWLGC
The experiment in a line: inhibition of 72kD gelatinase (Table 2). The format is biochemical. The conditions noted are these: read-out: 72kD G inhibitory activity.
Procedure: as §6, §7

The next experiment has as its target 92kD gelatinase (Homo sapiens, UniProt P14780). The experiment in a line: inhibition of 92kD gelatinase (Table 2). The format is biochemical. The conditions noted are these: read-out: 92kD G inhibitory activity.
In experiment [5] the test system is protease activity in open and chronic wound fluids. The experiment in a line: Azocoll assay of protease activity in open and chronic wound fluids. The format is biochemical, human. The conditions noted are these: for inhibition of Azocoll-degrading proteases in wound fluids: FIG. 6; for effect on proteolytic activity of open and chronic wound fluids: FIG. 5. The procedure:
(§1) Fluids were collected from 3 types of human wounds termed closed spontaneously healing wounds, open slowly healing wounds, and open chronic wounds. In the first category were fluids collected from the chest wall of women following mastectomy surgery. Fluids from non-infected wounds that were left open for valid surgical reasons were considered open slowly healing wounds. An occlusive dressing was placed over the wound bed, and fluids were collected after 2-6 hours of occlusion. Finally, fluids were also collected from chronic open wounds by covering the wounds with occlusive dressings. Wounds were considered to be chronic if they were not clinically infected and had been open and not healing for more than 4 weeks.
(§2) The various wound fluids were assayed for matrix metalloproteinase activity using the Azocoll assay essentially as described by Chavira, et al., Analytic Biochemistry (1984), 136:446.
(§3) The fluids were centrifuged, and the supernatants filtered using a 0.45μ sterile Gelman filter. The filtrates were stored frozen at -80° C. until tested for protease activity.
(§4) The effects of four inhibitors on the protease activity present in wound fluids were determined. The inhibitors were: compounds
These inhibitors were compared to certain other inhibitors and these were UL001 [HSCH2 CH(CH2 CH(CH3)2)CO--Phe--Ala--NH2 ] obtained from Peptides International and MP506, obtained from Elastin Products. EDTA (ethylenediamine tetraacetic acid) and PMSF (phenylmethylsulfonyl fluoride) were also studied.
(§5) Briefly, 900 μl of the Azocoll substrate suspension in buffer ([…] in 50 mM TRIS, pH 7.8, 1 mM CaCl2) was added to 1.5 ml microcentrifuge tubes then 50 μl of inhibitor (or buffer) and 50 μl of chronic wound fluid (or collagenase standard) were added to the reaction tube. The reaction tubes were placed at 37° C. in a shaker that inverted the tubes 30 times per minute. After 24 hours of incubation, the reaction tubes were centrifuges at 10,000 X g and the absorbance of the supernatant solution was measured at 520 nm with a Milton-Roy spectrophotometer. Proteolysis of Azocoll substrate generates soluble colored fragments from the insoluble Azocoll substrate. Wound fluid samples were incubated alone or with the inhibitors. Controls included incubation of the Azocoll substrate with the assay buffer to measure spontaneous degradation of the substrate. A standard curve for digestion of the Azocoll substrate was generated by incubation of the Azocoll with crude bacterial collagenase. Protease levels were expressed as net μg of collagenase equivalent per ml of chronic wound fluid. In the figures, certain of the wound fluids are referred to by an individual name.

Experiment [6] relates to protease activity of chronic wound fluid. The experiment is described as follows: Azocoll assay of protease activity in chronic wound fluid. The format is biochemical, human. The procedure: as §1, §2, §3, §4
Stock solutions of the four inhibitors were all prepared at a concentration of 800 μg/ml. Due to different solubility properties of the inhibitors, different techniques were utilized. […] S1209 was dissolved in 1% DMSO then dissolved in 10 mM citrate, pH 5.5, containing 0.05% methyl cellulose. 39A was dissolved in propylene glycol (to give a final concentration of 2.4%) then dissolved in 1 mM CaCl2, 50 mM Tris-Cl, pH 7.8. 21A was dissolved in propylene glycol (2.4%) methyl cellulose (0.05%) and 10 mM citrate, pH 8.
The protease substrate, Azocoll, was obtained from Sigma Chemical Corporation and it is a substrate for collagenase/gelatinase-like metalloproteinase enzymes and general proteases. Clostridium histolyticum collagenase (the crude form of the enzyme) was from Worthington Biochemicals. General chemicals including TRIS buffer, DMSO, and CaCl2 were from Sigma Chemical Corporation.
as §5
For these experiments, due to the different solubility properties of the inhibitors, different techniques were utilized. […] S1209 was dissolved in 1% DMSO then dissolved in 10 mM citrate, pH 5.5, containing 0.05% methyl cellulose. 39A was dissolved in propylene glycol (to give a final concentration of 2.4%) then dissolved in 1 mM CaCl2, […] Tris-Cl, pH 7.8. 21A was dissolved in propylene glycol (2.4%) methyl cellulose (0.05%) and 10 mM citrate, pH 8.

“Also recorded” adds a separate entry of the source. A value given as a limit tells only on which side of the number the result lay.

Sequence of Recombinant neutrophil collagenase (P22894 101-467): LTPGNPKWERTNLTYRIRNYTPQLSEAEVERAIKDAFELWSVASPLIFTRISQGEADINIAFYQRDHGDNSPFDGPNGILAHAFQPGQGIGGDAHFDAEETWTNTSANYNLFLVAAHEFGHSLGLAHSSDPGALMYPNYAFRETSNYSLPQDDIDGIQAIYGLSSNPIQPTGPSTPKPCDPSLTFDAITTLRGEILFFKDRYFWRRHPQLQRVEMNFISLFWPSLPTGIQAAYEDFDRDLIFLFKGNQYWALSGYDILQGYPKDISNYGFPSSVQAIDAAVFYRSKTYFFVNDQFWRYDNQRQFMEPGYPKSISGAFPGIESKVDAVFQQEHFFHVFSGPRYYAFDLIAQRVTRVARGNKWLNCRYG
Sequence of 92kD gelatinase (P14780 107-707 limits assumed): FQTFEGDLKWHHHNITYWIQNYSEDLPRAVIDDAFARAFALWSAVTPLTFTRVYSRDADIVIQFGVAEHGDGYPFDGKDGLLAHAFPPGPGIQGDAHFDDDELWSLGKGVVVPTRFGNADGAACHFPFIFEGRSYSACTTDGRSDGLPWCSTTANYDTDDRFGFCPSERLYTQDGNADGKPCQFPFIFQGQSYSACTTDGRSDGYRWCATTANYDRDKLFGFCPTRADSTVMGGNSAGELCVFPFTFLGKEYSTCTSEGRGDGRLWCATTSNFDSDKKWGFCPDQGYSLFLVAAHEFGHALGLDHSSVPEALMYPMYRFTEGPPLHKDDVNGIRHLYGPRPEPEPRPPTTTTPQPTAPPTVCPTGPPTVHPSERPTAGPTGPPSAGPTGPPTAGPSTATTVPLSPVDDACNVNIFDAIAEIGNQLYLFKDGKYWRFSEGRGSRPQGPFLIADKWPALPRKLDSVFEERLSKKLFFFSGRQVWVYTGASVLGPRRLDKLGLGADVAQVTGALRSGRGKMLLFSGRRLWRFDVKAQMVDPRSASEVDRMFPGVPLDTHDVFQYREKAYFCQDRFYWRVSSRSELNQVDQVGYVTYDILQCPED
Sequence of Stromelysin (P08254 100-477): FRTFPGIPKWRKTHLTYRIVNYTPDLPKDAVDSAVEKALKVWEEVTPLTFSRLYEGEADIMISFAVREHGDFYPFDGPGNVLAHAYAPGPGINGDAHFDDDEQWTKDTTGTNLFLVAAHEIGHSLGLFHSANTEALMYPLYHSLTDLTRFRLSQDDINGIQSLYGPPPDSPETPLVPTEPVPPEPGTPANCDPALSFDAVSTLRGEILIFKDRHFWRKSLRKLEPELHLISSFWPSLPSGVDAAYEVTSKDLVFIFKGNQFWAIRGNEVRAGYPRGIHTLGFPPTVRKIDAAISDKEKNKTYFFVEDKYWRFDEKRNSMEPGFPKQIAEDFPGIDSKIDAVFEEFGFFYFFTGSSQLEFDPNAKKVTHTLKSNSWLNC
Procedure for Stromelysin: as §6, §7

Regarding `CNC(=O)[C@H](Cc1c[nH]c2ccccc12)N(C)C(=O)C(CC(=O)NO)CC(C)C` (single isomer, unassigned) [Compound 9A, N-[2-isobutyl-3-(N'-hydroxyamidocarbonyl)-propanoyl]-N-methyl-L-tryptophanmethylamide], the Ki at Stromelysin is greater than 1000 nM; in experiment [1], 29 nM; in experiment [2], 500 nM; in experiment [3] it was 5 nM; in experiment [4], 32 nM.
As for `CCCCCCCCCCCCNC(=O)[C@H](Cc1c[nH]c2ccccc12)NC(=O)C(CC(=O)NO)CC(C)C` (single isomer, unassigned) [Compound 19A, N-[2-isobutyl-3-(N'-hydroxyamidocarbonyl)-propanoyl]-L-tryptophan dodecylamide], the Ki amounted to 40 nM on Stromelysin; 0.62 nM in experiment [1]; 300 nM in experiment [2]; 1.29 nM at 92kD gelatinase; 0.37 nM in experiment [4].
As to `CC(C)CC(CC(=O)NO)C(=O)N[C@@H](Cc1c[nH]c2ccccc12)C(=O)NCCCCCCNC(=O)OCc1ccccc1` (stereo partly drawn) [Compound 27A, N-[L-2-isobutyl-3-(N'-hydroxyamidocarbonyl)-propanoyl]-L-tryptophan(6-phenyl-methoxycarbonyl-1-aminohexyl)amide], the Ki came to 94 nM on Stromelysin; 21 nM in experiment [1]; 13 nM in experiment [2]; 0.1 nM in experiment [3]; 2.9 nM in experiment [4].
The like results for `CC(C)CC(CC(=O)NO)C(=O)N[C@@H](Cc1c[nH]c2ccccc12)C(=O)NC1CCCCC1` (stereo partly drawn) [Compound 28A, N-[L-2-Isobutyl-3-(N'-hydroxyamidocarbonyl)-propanoyl]-L-tryptophan cyclohexylamide] were, in that order, 78 nM, 1 nM, 50 nM, 0.1 nM and 4 nM.
Regarding `CC(C)C[C@H](CC(=O)O)C(=O)N[C@@H](Cc1c[nH]c2ccccc12)C(=O)NCCCN1CCOCC1` [Compound 48], the Ki at Stromelysin worked out at 19300 nM; in experiment [1], 32 nM; on 92kD gelatinase it was 65 nM; in experiment [4], 145 nM.
On to `CC(C)C[C@H](CC(=O)NO)C(=O)N[C@@H](Cc1c[nH]c2ccccc12)C(=O)NCCN1CCOCC1` [Compound 52, N-[2-Isobutyl-3-(N'-hydroxyamidocarbonyl)-propanoyl]-L-tryptophan-3(4-morpholinyl)-n-ethylamide], for which the Ki at Stromelysin turned out to be 57 nM; in experiment [1] it was 0.19 nM; at 92kD gelatinase, 0.97 nM; in experiment [3], 0.6 nM; in experiment [4], 0.81 nM.
The like results for `CC(C)C[C@H](CC(=O)O)C(=O)N[C@@H](Cc1c[nH]c2ccccc12)C(=O)NCc1ccccc1` [Compound 57, N-[2-Isobutyl-3-hydroxycarbonylpropanoyl]-L-tryptophan-benzylamide] were, in that order, 5140 nM, 20 nM, 37 nM, 2.2 nM and 57 nM.
Turning to `C[C@H](NC(=O)[C@H](Cc1c[nH]c2ccccc12)NC(=O)[C@@H](CCC(=O)O)NC(=O)OC(C)(C)C)c1ccccc1` [Compound 78], the Ki at Stromelysin is greater than 10000 nM; in experiment [1], greater than 10000 nM; at 92kD gelatinase, greater than 10000 nM; in experiment [3], 2000 nM; in experiment [4] it was greater than 10000 nM.
Turning to `C[C@H](NC(=O)[C@H](Cc1c[nH]c2ccccc12)NC(=O)[C@@H](CCC(=O)NO)NC(=O)OC(C)(C)C)c1ccccc1` [Compound 79, Boc-D-gamma-Hydroxamidoglutamyl-L-tryptophan-(S)-methylbenzylamide], the Ki is greater than 10000 nM on Stromelysin; greater than 10000 nM in experiment [1]; 21100 nM at 92kD gelatinase; 60 nM in experiment [3]; greater than 10000 nM in experiment [4].
As for `CNC(=O)C(Cc1ccc(OC)cc1)NC(=O)C(CC(=O)NO)CC(C)C` (stereo not drawn) [Compound S1209], in experiment [5], the “inhibition of Azocoll-degrading proteases in wound fluids” value (from here on “inhibition … in wound fluids”) is “very effectively; also recorded: very effective inhibitors”. Further, the “inhibition of protease activity of chronic wound fluid” value in experiment [6] (FIG. 7, highest concentration (800 μg/ml)) is given as 70%.
On to `O=C(O)CN(CCN(CC(=O)O)CC(=O)O)CC(=O)O` [EDTA, ethylenediamine tetraacetic acid, reference compound], for which, in experiment [5], the “effect on proteolytic activity of open and chronic wound fluids” value is listed as “very effective inhibitors”; the “inhibition … in wound fluids” value is on record as “very effectively”. Further, the “reduction of proteolytic activity in open or chronic wound fluids” value in experiment [5] (fluids with high levels of Azocoll-degrading protease activity) is listed as 95%. Also, in experiment [6] (FIG. 4), the “effective concentrations (order of magnitude)” value was “mM” and the “inhibition of protease activity of a chronic wound fluid” value was “effectively inhibited”. In experiment [6] (FIG. 4, EDTA at mM concentrations), the “reduction of protease activity” value is given as “approximately 96%”.
For `O=S(=O)(F)Cc1ccccc1` [PMSF, phenylmethylsulfonyl fluoride, reference compound], the “effect on proteolytic activity of open and chronic wound fluids” value in experiment [5] was “did not significantly reduce the proteolytic activity; also recorded: did not reduce the levels of proteolytic activity”. For the same compound, the “inhibition of protease activity of a chronic wound fluid” value in experiment [6] (FIG. 4) was “not an effective inhibitor except at the highest concentration”. For the same compound, in experiment [6] (FIG. 4, 500 μM), the “reduction of proteolytic activity” value is reported as “approximately 65%”. Also, the “effect on levels of protease activity at lower concentrations” value in experiment [6] (FIG. 4, PMSF 500 μM and 50 μM) was “slightly increase the levels of protease activity”.
For `CC(C)CC(CS)C(=O)N[C@@H](Cc1ccccc1)C(=O)N[C@@H](C)C(N)=O` (stereo partly drawn) [UL001], the “inhibition … in wound fluids” value in experiment [5] is listed as “very effectively”.
